By IC50 is commonly meant the midpoint of a concentration-inhibition curve.

Consider one compound from publication PMC11678425, “(-)-Syringaresinol Exerts an Antidepressant-like Activity in Mice by Noncompetitive Inhibition of the Serotonin Transporter” (Pharmaceuticals, 2024).

Data set [1] has as its target T1, hSERT (Homo sapiens, UniProt P31645). Type of data set: cell-based. Also on record: forward and reverse primers were used to amplify a full-length hSERT; expressed in transfected cells; host or cells: HeLa.
In data set [2] the target is T1, hSERT. As to conditions: 22 °C.
Data set [3] deals with T2, hSERT Y579A (Homo sapiens, UniProt P31645, Y579A).
T2 construct: forward and reverse primers were used to amplify a full-length hSERT; expressed in transfected cells; host or cells: HeLa
The data set is described as follows: ASP^+ binding, hSERT Y579A. Particulars: S2 site mutant, read-out: SYR IC50 for Binding.

The target of data set [4] is T3, hSERT Q562N (Homo sapiens, UniProt P31645, Q562N).
T3 construct: forward and reverse primers were used to amplify a full-length hSERT; expressed in transfected cells; host or cells: HeLa
Briefly: APP^+ uptake, hSERT Q562N. Type of data set: cell-based. Particulars: S2 site mutant, read-out: SYR IC50 for Transport.

For another data set, the target named is T4, hSERT T583A (Homo sapiens, UniProt P31645, T583A).
T4 construct: forward and reverse primers were used to amplify a full-length hSERT; expressed in transfected cells; host or cells: HeLa
Briefly: ASP^+ binding, hSERT T583A. As to conditions: S2 site mutant, read-out: SYR IC50 for Binding.

The next data set has as its target T5, hSERT S559A (Homo sapiens, UniProt P31645, S559A).
T5 construct: forward and reverse primers were used to amplify a full-length hSERT; expressed in transfected cells; host or cells: HeLa cells, transient, pcDNA3.1
Briefly: ASP^+ binding, hSERT S559A. Particulars: S2 site mutant, read-out: SYR IC50 for Binding.

In a further data set the test system is SERT S277C/X5C. The data set is described as follows: Cysteine accessibility, cytoplasmic pathway: MTSEA reactivity with S277C/X5C. Type of data set: cell-based. As to conditions: 10 μM ligand, digitonin-permeabilized cells, compared with the control.
For data set [5], the target named is T2, hSERT Y579A. The data set is described as follows: APP^+ uptake, hSERT Y579A. The format is cell-based. Particulars: S2 site mutant, read-out: SYR IC50 for Transport.
The target of data set [6] is T3, hSERT Q562N. The data set is described as follows: ASP^+ binding, hSERT Q562N. Particulars: S2 site mutant, read-out: SYR IC50 for Binding.
The next data set deals with T6, hSERT Y95F (Homo sapiens, UniProt P31645, Y95F).
T6 construct: forward and reverse primers were used to amplify a full-length hSERT; expressed in transfected cells; host or cells: HeLa
Briefly: ASP^+ binding, hSERT Y95F. Particulars: S1 site mutant, read-out: SYR IC50 for Binding.

The target of the next data set is T7, hSERT E494Q (Homo sapiens, UniProt P31645, E494Q).
T7 construct: forward and reverse primers were used to amplify a full-length hSERT; expressed in transfected cells; host or cells: HeLa cells, transient, pcDNA3.1
The data set is described as follows: ASP^+ binding, hSERT E494Q. As to conditions: S2 site mutant, read-out: SYR IC50 for Binding.

A further data set concerns the target T8, hSERT P499G (Homo sapiens, UniProt P31645, P499G).
T8 construct: forward and reverse primers were used to amplify a full-length hSERT; expressed in transfected cells; host or cells: HeLa cells, transient, pcDNA3.1
The data set is described as follows: APP^+ uptake, hSERT P499G. As to conditions: S2 site mutant, read-out: SYR IC50 for Transport. Type of data set: cell-based.

The next data set addresses T9, hSERT WT (Homo sapiens, UniProt P31645).
T9 construct: forward and reverse primers were used to amplify a full-length hSERT; expressed in transfected cells; host or cells: HeLa cells (CCL-2), transient, pcDNA3.1
The data set is described as follows: APP^+ uptake, hSERT WT. Type of data set: cell-based.

The next data set concerns CUMS mice. As to conditions: all tested dosages, i.p.
Data set [7] relates to hSERT S1 mutants (Y95F, I172F, S438T). Briefly: ASP^+ binding, S1 site mutants compared with WT. Also on record: species or system human. As to conditions: Tyr95 to Phe, Ile172 to Phe, Ser438 to Thr. The method, then:
(§1) HeLa cells were cultured in Dulbecco’s Modified Eagle’s Medium supplemented with 10% fetal bovine serum, 100 units/mL penicillin, and 100 μg/mL streptomycin at 37 °C in a humidified 5% CO2 incubator. Cells grown at ~70% confluence in a 6 cm culture dish were transfected with hSERT cDNA in pcDNA3.1 by lipofectamine 2000. Transfected cells were incubated for 12 h at 37 °C with 5% CO2 and then transferred into 96-well plates. After being grown for an additional 12–16 h, the cells were then assayed for APP^+ uptake or ASP^+ binding.
ASP^+ binding to SERT expressed on the cell surface was measured with digitonin-permeabilized cells as described previously. The cells expressing WT or mutants of hSERT were incubated with 10 μM ASP^+ in the presence of 25 μg/mL digitonin at 22 °C for 5 min. After removing excess ASP^+ by 3× rapid washing, ASP^+ fluorescence retained in the cell membrane was determined by fluorescence spectrometry.
hSERT mutants were generated using the Mut Express II Fast Mutagenesis kit (Vazyme, Nanjing, China). Briefly, forward and reverse primers were used to amplify a full-length hSERT. The PCR products were then digested with restriction enzymes, excised from agarose gels, and ligated into pcDNA3.1. All mutations were confirmed by full-length DNA sequencing.

A further data set concerns hSERT S2 mutants. The data set is described as follows: APP^+ uptake or ASP^+ binding, all S2 mutants compared with WT. Type of data set: cell-based, human. As to conditions: all S2 mutants tested. The method, then:
as §1
Measurement of transport or ligand binding activity of SERT was performed by using its fluorescent substrate (APP^+) or ligand (ASP^+), respectively. The cells transiently expressing WT or mutants of hSERT were applied for various treatments. […] APP^+ uptake was measured by adding 100 μL KRH buffer containing 2 μM APP^+ and incubating for 5 min at 22 °C. […] The extent of APP^+ accumulated in the cells was determined by fluorescence spectrometry with an Infinite 200 Pro microplate reader (Tecan, Männedorf, Switzerland).
ASP^+ binding to SERT expressed on the cell surface was measured with digitonin-permeabilized cells as described previously. […] After removing excess ASP^+ by 3× rapid washing, ASP^+ fluorescence retained in the cell membrane was determined by fluorescence spectrometry. […]

Another data set has as its target T10, hSERT D328A (Homo sapiens, UniProt P31645, D328A).
T10 construct: forward and reverse primers were used to amplify a full-length hSERT; expressed in transfected cells; host or cells: HeLa cells, transient, pcDNA3.1
Briefly: APP^+ uptake, hSERT D328A. Type of data set: cell-based. Particulars: S2 site mutant, read-out: SYR IC50 for Transport.

T9 sequence (P31645 whole entry): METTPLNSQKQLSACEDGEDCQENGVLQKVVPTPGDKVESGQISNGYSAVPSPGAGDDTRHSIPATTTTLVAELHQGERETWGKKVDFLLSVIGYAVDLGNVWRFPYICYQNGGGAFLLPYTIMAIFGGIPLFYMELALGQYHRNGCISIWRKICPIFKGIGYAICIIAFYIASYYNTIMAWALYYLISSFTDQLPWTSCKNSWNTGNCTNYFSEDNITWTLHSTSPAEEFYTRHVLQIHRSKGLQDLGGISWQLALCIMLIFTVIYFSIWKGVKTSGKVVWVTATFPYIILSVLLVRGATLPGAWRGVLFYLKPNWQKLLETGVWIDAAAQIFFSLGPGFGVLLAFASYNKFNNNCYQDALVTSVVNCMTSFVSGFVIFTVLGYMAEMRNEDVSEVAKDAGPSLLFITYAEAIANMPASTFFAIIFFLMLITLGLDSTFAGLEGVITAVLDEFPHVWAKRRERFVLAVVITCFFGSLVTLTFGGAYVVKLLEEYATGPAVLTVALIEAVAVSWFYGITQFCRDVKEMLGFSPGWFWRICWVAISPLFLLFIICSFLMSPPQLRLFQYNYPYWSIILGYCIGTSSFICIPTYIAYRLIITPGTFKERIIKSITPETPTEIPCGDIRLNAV
T1 sequence (P31645 whole entry): as above
T2 sequence (P31645 whole entry Y579A): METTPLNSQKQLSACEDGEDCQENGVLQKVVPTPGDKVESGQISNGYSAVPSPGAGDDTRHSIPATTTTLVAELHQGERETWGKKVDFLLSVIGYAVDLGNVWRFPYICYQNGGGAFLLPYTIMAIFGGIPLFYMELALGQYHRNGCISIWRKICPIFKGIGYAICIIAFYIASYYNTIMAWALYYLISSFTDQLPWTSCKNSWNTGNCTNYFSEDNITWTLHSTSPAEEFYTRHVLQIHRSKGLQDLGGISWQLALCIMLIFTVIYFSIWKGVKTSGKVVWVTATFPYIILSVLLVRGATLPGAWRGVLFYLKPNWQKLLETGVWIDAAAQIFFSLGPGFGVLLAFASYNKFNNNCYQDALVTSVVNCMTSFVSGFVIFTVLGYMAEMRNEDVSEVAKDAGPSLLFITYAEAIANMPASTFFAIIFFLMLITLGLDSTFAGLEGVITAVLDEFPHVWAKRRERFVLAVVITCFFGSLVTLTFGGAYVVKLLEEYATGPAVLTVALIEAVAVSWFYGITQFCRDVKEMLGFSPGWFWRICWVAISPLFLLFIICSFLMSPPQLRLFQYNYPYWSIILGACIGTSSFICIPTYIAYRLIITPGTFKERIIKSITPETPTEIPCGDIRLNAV
T3 sequence (P31645 whole entry Q562N): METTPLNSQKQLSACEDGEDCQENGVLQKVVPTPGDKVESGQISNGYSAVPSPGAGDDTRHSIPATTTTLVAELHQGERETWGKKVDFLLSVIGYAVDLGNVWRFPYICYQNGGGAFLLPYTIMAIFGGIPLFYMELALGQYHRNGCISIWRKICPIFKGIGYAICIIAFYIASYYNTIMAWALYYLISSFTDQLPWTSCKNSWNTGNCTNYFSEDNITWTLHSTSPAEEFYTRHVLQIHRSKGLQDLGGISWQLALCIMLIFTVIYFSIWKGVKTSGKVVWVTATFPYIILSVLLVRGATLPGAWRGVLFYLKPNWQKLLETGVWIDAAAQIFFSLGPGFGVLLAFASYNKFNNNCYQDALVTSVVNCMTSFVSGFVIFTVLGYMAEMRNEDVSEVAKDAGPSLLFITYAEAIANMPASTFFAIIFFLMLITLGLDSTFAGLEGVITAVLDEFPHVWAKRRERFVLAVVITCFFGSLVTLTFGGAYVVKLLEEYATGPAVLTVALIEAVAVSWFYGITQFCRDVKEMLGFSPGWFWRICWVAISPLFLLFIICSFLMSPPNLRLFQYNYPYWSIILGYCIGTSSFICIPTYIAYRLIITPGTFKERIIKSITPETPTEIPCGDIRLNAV
T4 sequence (P31645 whole entry T583A): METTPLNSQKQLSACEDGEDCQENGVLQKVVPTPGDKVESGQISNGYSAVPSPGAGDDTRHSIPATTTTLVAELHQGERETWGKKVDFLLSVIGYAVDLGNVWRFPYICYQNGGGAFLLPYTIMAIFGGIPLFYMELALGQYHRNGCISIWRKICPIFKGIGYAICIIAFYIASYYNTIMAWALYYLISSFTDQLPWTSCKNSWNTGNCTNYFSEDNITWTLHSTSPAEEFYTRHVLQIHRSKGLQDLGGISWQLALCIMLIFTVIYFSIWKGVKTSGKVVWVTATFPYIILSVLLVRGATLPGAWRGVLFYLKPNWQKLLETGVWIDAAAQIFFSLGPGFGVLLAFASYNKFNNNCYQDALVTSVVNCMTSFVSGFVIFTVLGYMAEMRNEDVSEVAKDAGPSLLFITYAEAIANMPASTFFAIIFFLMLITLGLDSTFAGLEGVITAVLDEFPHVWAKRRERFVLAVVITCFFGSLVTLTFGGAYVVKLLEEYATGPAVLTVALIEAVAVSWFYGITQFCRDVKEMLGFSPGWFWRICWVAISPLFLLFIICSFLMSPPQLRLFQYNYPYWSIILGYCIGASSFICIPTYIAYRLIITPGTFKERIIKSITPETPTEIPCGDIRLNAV
T8 sequence (P31645 whole entry P499G): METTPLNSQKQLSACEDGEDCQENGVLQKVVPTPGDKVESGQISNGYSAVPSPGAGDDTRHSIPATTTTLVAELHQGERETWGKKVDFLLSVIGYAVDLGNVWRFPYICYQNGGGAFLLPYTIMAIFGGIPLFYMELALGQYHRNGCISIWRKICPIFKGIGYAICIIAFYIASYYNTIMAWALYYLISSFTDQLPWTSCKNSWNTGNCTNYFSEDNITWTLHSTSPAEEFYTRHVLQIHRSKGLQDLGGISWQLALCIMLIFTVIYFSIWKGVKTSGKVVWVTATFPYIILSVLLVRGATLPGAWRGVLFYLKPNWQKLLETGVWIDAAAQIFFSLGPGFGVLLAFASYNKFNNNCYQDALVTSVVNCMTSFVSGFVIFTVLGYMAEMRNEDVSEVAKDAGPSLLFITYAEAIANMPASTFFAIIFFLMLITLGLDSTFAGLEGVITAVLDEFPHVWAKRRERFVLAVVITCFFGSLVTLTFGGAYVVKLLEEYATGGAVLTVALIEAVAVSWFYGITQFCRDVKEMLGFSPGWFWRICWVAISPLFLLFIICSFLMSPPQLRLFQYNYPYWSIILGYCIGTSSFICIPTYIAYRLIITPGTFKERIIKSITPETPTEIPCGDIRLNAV
T10 sequence (P31645 whole entry D328A): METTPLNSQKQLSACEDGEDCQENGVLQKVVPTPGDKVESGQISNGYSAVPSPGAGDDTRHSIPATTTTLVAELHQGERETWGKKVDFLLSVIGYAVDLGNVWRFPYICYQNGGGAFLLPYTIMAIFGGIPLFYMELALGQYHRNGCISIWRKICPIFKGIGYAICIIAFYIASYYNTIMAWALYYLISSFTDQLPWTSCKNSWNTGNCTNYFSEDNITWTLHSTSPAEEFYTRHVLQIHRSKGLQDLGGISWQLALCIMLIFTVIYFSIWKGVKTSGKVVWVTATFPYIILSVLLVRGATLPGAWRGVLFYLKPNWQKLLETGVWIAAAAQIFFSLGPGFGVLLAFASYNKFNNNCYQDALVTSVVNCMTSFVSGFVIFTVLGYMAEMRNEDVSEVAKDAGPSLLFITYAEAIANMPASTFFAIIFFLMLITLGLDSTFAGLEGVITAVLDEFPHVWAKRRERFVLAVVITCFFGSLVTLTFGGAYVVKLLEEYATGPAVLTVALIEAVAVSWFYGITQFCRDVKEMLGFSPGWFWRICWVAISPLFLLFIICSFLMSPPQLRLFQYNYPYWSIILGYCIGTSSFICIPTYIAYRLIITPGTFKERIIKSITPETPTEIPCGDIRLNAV
T6 sequence (P31645 whole entry Y95F): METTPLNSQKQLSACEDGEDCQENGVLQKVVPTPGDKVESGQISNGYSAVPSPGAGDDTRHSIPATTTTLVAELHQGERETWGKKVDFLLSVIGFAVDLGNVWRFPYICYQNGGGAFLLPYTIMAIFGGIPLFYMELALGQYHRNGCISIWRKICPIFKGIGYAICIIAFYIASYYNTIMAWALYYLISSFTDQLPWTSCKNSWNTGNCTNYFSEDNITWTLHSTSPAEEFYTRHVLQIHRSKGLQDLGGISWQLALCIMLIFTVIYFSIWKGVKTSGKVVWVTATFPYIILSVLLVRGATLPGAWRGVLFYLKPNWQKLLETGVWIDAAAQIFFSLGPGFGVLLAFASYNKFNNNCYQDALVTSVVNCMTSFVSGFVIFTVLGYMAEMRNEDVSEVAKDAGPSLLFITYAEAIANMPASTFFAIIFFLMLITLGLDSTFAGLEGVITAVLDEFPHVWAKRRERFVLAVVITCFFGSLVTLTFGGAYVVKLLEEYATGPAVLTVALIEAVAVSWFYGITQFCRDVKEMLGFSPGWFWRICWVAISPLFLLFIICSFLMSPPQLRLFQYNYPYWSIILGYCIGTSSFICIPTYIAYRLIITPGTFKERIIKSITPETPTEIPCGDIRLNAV

For the compound `COc1cc([C@@H]2OC[C@@H]3[C@H]2CO[C@H]3c2cc(OC)c(O)c(OC)c2)cc(OC)c1O` [SYR, (-)-syringaresinol], the “hSERT expression on the cell surface” value at hSERT [1] is reported as “did not alter”. The “effect on 5-HT-induced APP^+ efflux” value at hSERT [2] (10 μM + 10 μM 5-HT) is given as “effectively blocked”. Besides, on hSERT [2] (10 μM, cells preloaded with APP^+), the “effect on basal APP^+ efflux” value is “not by SYR”. Further, the IC50 on hSERT Y579A [3] was determined as 28.62 ± 0.15 µM; at hSERT Q562N [4], 48.8 ± 4.51 µM; on hSERT T583A, 30.9 ± 0.93 µM; at hSERT S559A, 36.8 ± 2.49 µM; on hSERT Y579A [5], 16.3 ± 1.06 µM; on hSERT Q562N [6] it was 99.9 ± 2.04 µM. Also, the half-maximal inhibitory concentration (IC50) at hSERT Y95F was 1.21 ± 0.01 µM; at hSERT E494Q, 9.77 ± 0.78 µM; at hSERT P499G, 11 ± 1.43 µM; at hSERT WT (WT, APP^+ uptake, SYR added 5 min prior to APP^+, read-out: SYR IC50 for Transport) it was 0.25 ± 0.01 µM; at hSERT D328A, 19.6 ± 1.21 µM. For the same compound, in the data set on SERT S277C/X5C, the “rate constant of MTSEA reactivity with S277C/X5C” value is on record as “decreased”. In addition, the “Vmax of APP^+ transport with addition of SYR” value at hSERT WT ([…] SYR) is recorded as 12.95 ± 1.52 AFU/min. The “increase of inhibitory potency compared with SAG” value at hSERT WT (compared with glycoside derivative SAG) is “approximately 10 fold”. Also, the “mode of inhibition of APP^+ transport” value at hSERT WT (decreased Vmax, little change in Km) is “noncompetitive inhibitor”. Further, the fatality rate result in the data set on CUMS mice is “zero fatality rate”. Also, the “effect of S1 site mutations on SYR inhibition of ASP^+ binding” value in data set [7] is “little effect”. Also, the “increase of SYR IC50 for APP^+ uptake or ASP^+ binding compared with WT” value in the data set on hSERT S2 mutants is reported as “more than 10 fold”.
